Reference: patent US20240108559A1, “TOPICAL COMPOSITIONS CONTAINING SYNTHETIC ESTERS OF SINAPINIC ACID AND METHODS FOR TREATING KERATIN SURFACES” (ELC MANAGEMENT LLC, priority 2017, published 2024)
Where a name gives a salt, the structure may show the parent alone.

Legend:
[1] = UV absorbance peak stability over time and temperature (UV visible spectroscopy); assay type: physicochemical; conditions: 1.4 and 14 ppm in 50/50 water and butylene glycol, time 0, week 1, 2, 4, 25°, 40°, 50° C., FIG. 1, FIG. 2
Procedure: Sinapoyl malate and CAPE were evaluated for UV absorption. 50 and 100 ppm of each compound was dissolved in water and a second sample set of isopropanol. Additional samples of sinapyl malate and CAPE were prepared by dissolving 0.025% and 0.05% of each ingredient in a 50/50 mixture of water and butylene glycol. Further dilution to obtain a concentration of 1.4 ppm and 14 ppm was performed.
The samples were tested for UV absorption across the UV range by measuring with an Agilent 8453 UV visible spectroscopy system at wavelengths ranging across 200 to 450 nm at time 0, week 1, week 2, and week 4. The term “NA” means that a previously observed absorbance peak was no longer visible. The term “peak” means the two highest absorbance peaks in the UV spectrum. The term “valley” means the two lowest point between the absorbance peaks. In the case where there is only one peak or valley it means that the other, previously observed peak or valley was deteriorated at the time and temperature of the stability study. In the case where all peaks and valleys are indicated “NA” it means that the sample deteriorated entirely and no longer absorbed in the UV range at all.

Row | SMILES | stability of UV absorbance peaks over time and temperature [1] | melting point [°C]
1 | O=C(/C=C/c1ccc(O)c(O)c1)OCCc1ccccc1 [CAPE, reference compound] | much less stability over time and temperature | –
2 | COc1cc(/C=C/C(=O)OC(CC(=O)O)C(=O)O)cc(OC)c1O (stereo not drawn) [Sinapoyl malate] | more stable over time and temperature | –
3 | COc1cc(/C=C/C(=O)OC(CC(=O)O)C(=O)O)cc(OC)c1O (stereo not drawn) (as salt: malate) [Sinapoyl malate] | – | 55 to 65
